Measured values as given in patent publication US7452880B2, “Substituted pyrazolo [3,4-d] pyrimidines and methods of using the same” (priority 2004, dated 2008).

Key:
p38 MAP kinase = molecular target: T1, p38 MAP kinase (Homo sapiens, UniProt Q16539); assay: p38 (MAP) kinase in vitro assay (transfer of γ-33P-phosphate from ATP to Myelin Basic Protein); format: biochemical; details: phosphorylated recombinant p38 MAP kinase, MBP substrate, γ-33P-ATP, 30° C.
T1 construct: made in house; host or cells: E. coli (co-expressed with SEK-1 and MEKK to obtain the phosphorylated form)
T1 sequence (Q16539 whole entry): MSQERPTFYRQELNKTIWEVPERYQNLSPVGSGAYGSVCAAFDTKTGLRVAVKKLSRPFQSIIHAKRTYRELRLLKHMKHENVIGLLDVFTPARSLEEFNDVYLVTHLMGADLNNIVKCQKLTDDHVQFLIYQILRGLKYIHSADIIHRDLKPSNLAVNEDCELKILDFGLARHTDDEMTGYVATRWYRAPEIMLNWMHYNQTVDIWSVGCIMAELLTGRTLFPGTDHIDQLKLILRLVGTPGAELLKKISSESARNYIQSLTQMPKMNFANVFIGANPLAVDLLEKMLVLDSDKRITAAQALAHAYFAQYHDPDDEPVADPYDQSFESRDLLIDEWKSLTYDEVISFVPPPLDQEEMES
Procedure: This example illustrates a p38 (MAP) kinase in vitro assay useful for evaluating the compounds of the invention.
The p38 MAP kinase inhibitory activity of compounds of this invention in vitro was determined by measuring the transfer of the γ-phosphate from γ-^33P-ATP by p-38 kinase to Myelin Basic Protein (MBP), using a minor modification of the method described in Ahn, et al., J. Biol. Chem. 266:4220-4227 (1991).
The phosphorylated form of the recombinant p38 MAP kinase was co-expressed with SEK-1 and MEKK in E. Coli (see, Khokhlatchev, et al., J. Biol. Chem. 272:11057-11062 (1997)) and then purified by affinity chromatography using a Nickel column.
The phosphorylated p38 MAP kinase was diluted in kinase buffer (20 mM 3-(N-morpholino)propanesulfonic acid, pH 7.2, 25 mM β-glycerol phosphate, 5 mM ethylene glycol-bis(beta-aminoethyl ether)-N,N,N′,N′-tetraacetic acid, 1 mM sodium ortho-vanadate, 1 mM dithiothreitol, 40 mM magnesium chloride). Test compound dissolved in DMSO or only DMSO (control) was added and the samples were incubated for 10 min at 30° C. The kinase reaction was initiated by the addition of a substrate cocktail containing MBP and γ-^33P-ATP. […] The phosphorylated MBP was then separated from the residual γ-^33P-ATP using a phosphocellulose membrane (Millipore, Bedfrod, Mass.) and quantitated using a scintillation counter (Packard, Meriden, Conn.).

| SMILES | melting point [°C] | IC50 (p38 MAP kinase) [nM] |
| --- | --- | --- |
| COc1ccccc1-c1n[nH]c2cc(Oc3ccc(F)cc3F)cnc12 [Compound 98, 6-(2,4-Difluoro-phenoxy)-3-(2-methoxy-phenyl)-1H-pyrazolo[4,3-b]pyridine] | 143.2 to 144.9 | – |
| COc1ccc(F)c(-c2n[nH]c3nc(Oc4ccc(F)cc4F)ncc23)c1 [Compound 64, 6-(2,4-Difluoro-phenoxy)-3-(2-fluoro-5-methoxy-phenyl)-1H-pyrazolo[3,4-d]pyrimidine] | 177.6 to 183.2 | – |

Now from value to molecule:

| melting point [°C] | IC50 (p38 MAP kinase) [nM] | SMILES |
| --- | --- | --- |
| 55.3 to 56.1 | – | FC(F)(F)c1ccccc1Oc1ncc2c(-c3ccccc3Cl)n[nH]c2n1 [Compound 13, 3-(2-Chloro-phenyl)-6-(2-trifluoromethyl-phenoxy)-1H-pyrazolo[3,4-d]pyrimidine] |
| 221.3 to 223.1 | – | Clc1ccccc1Oc1ncc2c(-c3cccs3)n[nH]c2n1 [Compound 22, 6-(2-Chloro-phenoxy)-3-thiophen-2-yl-1H-pyrazolo[3,4-d]pyrimidine] |
| – | ~10 | Fc1ccc(Oc2ncc3c(-c4ccccc4Cl)n[nH]c3n2)c(F)c1 [Compound 3, 3-(2-Chloro-phenyl)-6-(2,4-difluoro-phenoxy)-1H-pyrazolo[3,4-d]pyrimidine] |
